In patent US7625887B2, “Receptor agonists” (Takeda Pharmaceutical Company Limited, priority 2003, dated 2009):

How the values were obtained:
THP-TGR5 cells = experiment: suppression of LPS induced TNF α secretion in THP-TGR5 cells; type: cell-based, human; settings: non-addition: 11 with LPS, 2.7 without LPS
Protocol: TGR5 high expression cells were established by introducing TGR5 gene into human macrophage cells line THP-1. According to a conventional method, pcDNA-TGR5 incorporating cDNA of human TGR5 in pcDNA3.1 (Invitrogen) was prepared. Then, THP-1 was cultured in a medium (RPMI1640 10% FBS), and pcDNA-TGR5 was introduced thereinto using lipofectamine (Gibco BRL) according to conventional methods. Thereafter, G418 (Gibco BRL) was added to the medium to select resistant strains, and cells line, THP-TGR5 that expresses TGR5 stably and highly was established.
THP-TGR5 thus obtained was diluted to a concentration of 1×10^5/well and cultured overnight in a 96 well plate in the presence of 10^−8M phorbol ester (Wako Pure Chemical Industries, Ltd.). THP-TGR5 after culture was cultured for 1 hr in a medium containing a test compound or a control medium (0.1 ml) free of a test compound, 0.1 ml of a medium containing the same concentration of the test compound or a control medium free of the test compound, each of which containing LPS for induction of TNF α secretion was added (concentration at the time of addition 50 ng/ml) and the mixture was incubated at 37° C. under 5% CO2 for 14 hrs. The culture supernatant was collected and the TNF α content was measured with the growth suppressing effect on the TNF sensitive cell line L929 (RIKEN Institute) as an index.
L929 cells were seeded in a 96 well plate at 1.2×10^4/well and incubated overnight at 37° C. under 5% CO2. The obtained culture product was cultured overnight in a medium (phenol red free Dulbecco's Modified Eagle Medium (Invitrogen) supplemented with 10% fetal bovine serum (Invitrogen), 100 U/ml penicillin and 100 μg/ml streptomycin), which contained the aforementioned THP-TGR5-containing culture supernatant and 2 μg/ml Actinomycin D (Wako Pure Chemical Industries, Ltd.). The TNF α content was determined by measuring the growth of the L929 cells in the obtained culture product using a Cell Counting Kit-8 (Wako Pure Chemical Industries, Ltd.). As the standard sample, human recombinant TNF α (Genzyme) was used.

human TGR5 [1] = target: T1, human TGR5 (Homo sapiens, UniProt Q8TDU6); experiment: cAMP production increasing activity in human TGR5 expressing CHO cells; type: cell-based; settings: test compound 1 μM, 30 min; 1 μM lithocholic acid = 100%, no addition = 0%; average of 3 groups
T1 construct: expressed in transfected cells; host or cells: CHO cells
T1 sequence (Q8TDU6 1-330): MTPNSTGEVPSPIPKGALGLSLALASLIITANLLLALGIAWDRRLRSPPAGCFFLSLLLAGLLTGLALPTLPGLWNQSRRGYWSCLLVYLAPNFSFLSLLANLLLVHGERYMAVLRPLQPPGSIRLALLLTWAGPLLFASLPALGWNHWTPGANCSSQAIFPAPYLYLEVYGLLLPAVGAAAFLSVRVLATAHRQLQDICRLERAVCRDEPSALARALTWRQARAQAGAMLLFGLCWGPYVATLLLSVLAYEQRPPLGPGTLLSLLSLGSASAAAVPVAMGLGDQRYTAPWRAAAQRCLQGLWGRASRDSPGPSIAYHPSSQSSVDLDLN
Protocol: As the assay buffer, Hank's balanced salt solution (HBSS, Invitrogen) supplemented with 0.1% bovine serum albumin (BSA, Sigma) and 0.5 mM 3-isobutyl-1-methylxanthine (IBMX, Sigma) was used. A test compound sample (1 μM) diluted with the assay buffer was added to the cells. The cells were incubated at 37° C. for 30 min. and the supernatant was suctioned. The intracellular cAMP amount increased by the stimulation of the test compound was quantitatively determined using a HitHunter™ EFC Cyclic AMP Chemiluminescence Assay Kit (ABI) kit.

NCI-H716 cells [2] = experiment: intracellular cAMP production increasing action in NCI-H716 cells; type: cell-based, human; settings: 2 hrs, production amount in TLCA (50 μM) was 100%, Base 11
Protocol: NCI-H716 (ATCC) was suspended in a medium (Dulbecco's Modified Eagle Medium (DMEM, Invitrogen) supplemented with 10% fetal bovine serum (Invitrogen), 100 U/ml penicillin and 100 μg/ml streptomycin), seeded in a 96 well plate, cultured for 2 days and used for cAMP production assay. As a cAMP assay buffer, modified Krebs-Ringer bicarbonate buffer (KRBH, 116 mM NaCl, 4.7 mM KCl, 1.2 mM KH2PO4, 1.2 MM MgSO4, 2.5 mM CaCl2, 25 mM NaHCO3, 24 mM HEPES pH 7.3), supplemented with glucose 5.5 mM, bovine serum albumin (BSA) 0.1%, and 3-isobutyl-1-methylxanthine (IBMX, Sigma) 1 mM, was used. The cells were washed once with cAMP assay buffer. Bile acids (50 μM) diluted with cAMP assay buffer or the compounds of the present invention (10 μM) were added thereto and the cells were incubated for 2 hrs. The culture supernatant was discarded, and the cAMP production amount was measured by cAMP Screen System (ABI). In the Table, Base means non-addition of a test compound.

NCI-H716 cells [3] = experiment: GLP-1 secretion from NCI-H716 cell line; type: cell-based, human; settings: 2 hrs, secretion amount in Base was 100%
Protocol: NCI-H716 cells secrete Glucagon-like peptide-1 (GLP-1). GLP-1 is a peptide useful for controlling blood glucose level because it acts on the pancreas to cause secretion of insulin and the like. In the same manner as in Experimental Example 9, NCI-H716 (ATCC) was seeded in a 96 well plate and, after incubation for 2 days, used for the following secretion test. As a buffer for secretion test, modified Krebs-Ringer bicarbonate buffer (KRBH, 116 mM NaCl, 4.7 mM KCl, 1.2 mM KH2PO4, 1.2 mM MgSO4, 2.5 mM CaCl2, 25 mM NaHCO3, 24 mM HEPES, pH 7.3) supplemented with glucose 5.5 mM and BSA 0.1% was used. The cells were washed once with the buffer for secretion test, preincubated at 37° C. under 5% CO2, bile acid diluted with the buffer for secretion test was added and the cells were cultured at 37° C. under 5% CO2 for 2 hrs. The cell culture supernatant was collected, cryopreserved and the GLP-1 content in the supernatant was measured using a GLP-1 measurement EIA kit (Linco) The results are shown in Table 9. In the Table, Base means non-addition of a test compound.

guinea pig TGR5 = experiment: cAMP production increasing activity in guinea pig TGR5 expressing CHO cells; type: cell-based; settings: test compound 2 μM; 10 μM lithocholic acid = 100%; average of 3 groups
Protocol: (§1) The guinea pig type TGR5 expressing CHO cells were seeded in one 150 cm^2 flask at 1×10^7 cells, and cultured overnight at 37° C., 5% CO2. After culture, the cells were detached with 0.5 mM EDTA/PBS, washed with PBS, and suspended in Buffer 1 (HBSS+0.1% BSA, 25 mM HEPES pH 7.3, 0.5 mM IBMX) at a density of 1×10^7 cells/ml. The obtained cell suspension (460 μl), anti-cAMP acceptor beads (23 μl) of AlphaScreen cAMP assay kit (Perkin Elmer) and Buffer 1 (667 μl) were mixed and dispensed to a white 96 well plate (Costar) by 10 μl. Then, a test compound diluted with Buffer 1 was added to each well by 10 μl. At this time, one row of the plate was free of the cell suspension but added with anti-cAMP acceptor beads (9 μl) and Buffer 1 (441 μl) alone, and serial dilutions of cAMP were added instead of the test compound and used as the standard. A mixture of the cell suspension and the test compound contained in the plate was allowed to react at room temperature for 30 min. […] The plate was shaken at room temperature for 2.5 hrs and fluorescence intensity was measured by Fusion α (Parkin Elmer), and the cAMP concentration of each well was calculated using the cAMP standard on each plate.

rat TGR5 = target: T2, rat TGR5 (Rattus norvegicus, UniProt Q80T02); experiment: cAMP production increasing activity in rat type TGR5 expressing CHO cells; type: cell-based; settings: 0.5 h, read-out: cAMP producing activity (control %)
T2 construct: expressed in transfected cells; host or cells: CHO cells
T2 sequence (Q80T02 1-329): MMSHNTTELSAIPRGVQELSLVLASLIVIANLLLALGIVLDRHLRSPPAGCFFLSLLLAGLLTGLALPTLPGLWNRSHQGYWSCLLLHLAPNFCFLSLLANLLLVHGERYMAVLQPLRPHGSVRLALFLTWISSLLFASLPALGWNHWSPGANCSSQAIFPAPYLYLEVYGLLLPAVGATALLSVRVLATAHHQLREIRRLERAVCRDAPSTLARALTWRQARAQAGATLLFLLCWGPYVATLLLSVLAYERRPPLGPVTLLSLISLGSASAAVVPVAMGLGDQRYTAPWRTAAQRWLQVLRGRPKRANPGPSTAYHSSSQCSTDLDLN
Protocol: as §1, with “After” for “The guinea pig type TGR5 expressing CHO cells were seeded in one 150 cm^2 flask at 1×10^7 cells, and cultured overnight at 37° C., 5% CO2. After”

human TGR5 [4] = target: T1, human TGR5; experiment: cAMP production increasing activity in human TGR5 expressing CHO cells; type: cell-based; settings: read-out: EC50 value (concentration necessary to make the cAMP production amount 50%)
[5] = tested on: mock CHO cells free of human TGR5 expression; experiment: cAMP production increasing activity in mock CHO cells free of human TGR5 expression; type: cell-based; settings: average of 3 groups
Protocol: As the assay buffer, Hank's balanced salt solution (HBSS, Invitrogen) supplemented with 0.1% bovine serum albumin (BSA, Sigma) and 0.2 mM 3-isobutyl-1-methylxanthine (IBMX, Sigma) was used. The cells were washed twice with the assay buffer and preincubated at 37° C. for 30 min. The cells were washed twice, and test compound samples (10 μM) diluted with the assay buffer to various concentrations were added. The cells were incubated at 37° C. for 20 min. The culture supernatant was discarded, and the cAMP production amount was measured using a cAMP Screen System (ABI).

`CCOC(=O)CC1C(=O)N(CC(C)(C)C)c2ccccc2CN1C(=O)OC(C)(C)C` (stereo not shown) [Reference Example 1B, tert-butyl 3-(2-ethoxy-2-oxoethyl)-1-neopentyl-2-oxo-1,2,3,5-tetrahydro-4H-1,4-benzodiazepine-4-carboxylate] was tested, and the “TNF α” value (THP-TGR5 cells; test compound 10 μM) was 0.63 ng/mL.
With `CC(=O)NCc1cccc([C@@H]2O[C@H](CC(=O)NCc3ccccc3F)C(=O)N(CC(C)(C)C)c3ccc(Cl)cc32)c1` (relative stereo) [Reference Example 3, 2-[3,5-trans-5-[3-(acetylaminomethyl)phenyl]-7-chloro-1-neopentyl-2-oxo-1,2,3,5-tetrahydro-4,1-benzoxazepin-3-yl]-N-(2-fluorobenzyl)acetamide] the “cAMP production increasing activity (control %)” value (human TGR5 [1]) was 85 control % and the “TNF α” value (THP-TGR5 cells; test compound 10 μM) was 0.33 ng/mL.
With `COC(=O)NCc1cccc(C2OC(CC(=O)NCc3ccccc3F)C(=O)N(CC(C)(C)COC(C)=O)c3ccc(Cl)cc32)c1` (stereo not drawn) [Example 46, 3-[3,5-trans-7-chloro-3-[2-[(2-fluorobenzyl)amino]-2-oxoethyl]-5-[3-(methoxycarbonylaminomethyl)phenyl]-2-oxo-2,3-dihydro-4,1-benzoxazepin-1(5H)-yl]-2,2-dimethylpropyl acetate] the “cAMP production increasing activity (%)” value (NCI-H716 cells [2]; 10 μM) was 112%, the “GLP-1 secretion increase (%)” value (NCI-H716 cells [3]; 5 μM) was 165% and the “cAMP producing activity (control %)” value (guinea pig TGR5) was 77 control %. For the same molecule, the activation at 2 µM (rat TGR5) was 104% and the EC50 (human TGR5 [4]) was < 100 nM.
In the case of `C[C@H](CCC(=O)O)[C@H]1CC[C@H]2[C@@H]3CC[C@@H]4C[C@H](O)CC[C@]4(C)[C@H]3CC[C@]12C` [lithocholic acid, reference compound], the “TNF α” value (THP-TGR5 cells; bile acid 50 μM) is reported as 1.1 ng/mL, the “cAMP production increasing activity (%)” value (NCI-H716 cells [2]; bile acid 50 μM) is reported as 107% and the “GLP-1 secretion increase (%)” value (NCI-H716 cells [3]; bile acid 25 μM) is reported as 121%.
`COC(=O)NCc1cccc([C@@H]2O[C@H](CC(=O)NCc3ccccc3F)C(=O)N(CC(C)(C)C)c3ccc(Cl)cc32)c1` (relative stereo) [Reference Example 6, methyl [3-[3,5-trans-7-chloro-3-[2-[(2-fluorobenzyl)amino]-2-oxoethyl]-1-neopentyl-2-oxo-1,2,3,5-tetrahydro-4,1-benzoxazepin-5-yl]benzyl]carbamate] was tested, and the “cAMP production increasing activity (control %)” value (human TGR5 [1]) was 98 control % and the “TNF α” value (THP-TGR5 cells; test compound 10 μM) was 0.32 ng/mL.
For `C=C[C@@]1(C)CC(=O)[C@]2(O)[C@@]3(C)[C@@H](O)CCC(C)(C)[C@@H]3[C@H](O)[C@H](OC(C)=O)[C@@]2(C)O1` [Forskolin, reference compound], the “cAMP production increasing activity” value ([5]; Experimental Example 2, Forskolin 2 μM, Base 0.85) was 4.02 pmol, the “cAMP production increasing activity” value ([5]; Experimental Example 4, test compounds 2 μM, Base 0.28) was 5.68 pmol and the “cAMP production increasing activity” value ([5]; Experimental Example 5, test compounds 2 μM, Base 0.19) was 3.01 pmol.
